The results in this text go back to patent US20230293519A1, “INTEGRIN INHIBITORS AND USES THEREOF IN COMBINATION WITH OTHER AGENTS” (Pliant Therapeutics, Inc., priority 2021, published 2023).

Sequence of recombinant human integrin αvβ6 (P06756 31-889): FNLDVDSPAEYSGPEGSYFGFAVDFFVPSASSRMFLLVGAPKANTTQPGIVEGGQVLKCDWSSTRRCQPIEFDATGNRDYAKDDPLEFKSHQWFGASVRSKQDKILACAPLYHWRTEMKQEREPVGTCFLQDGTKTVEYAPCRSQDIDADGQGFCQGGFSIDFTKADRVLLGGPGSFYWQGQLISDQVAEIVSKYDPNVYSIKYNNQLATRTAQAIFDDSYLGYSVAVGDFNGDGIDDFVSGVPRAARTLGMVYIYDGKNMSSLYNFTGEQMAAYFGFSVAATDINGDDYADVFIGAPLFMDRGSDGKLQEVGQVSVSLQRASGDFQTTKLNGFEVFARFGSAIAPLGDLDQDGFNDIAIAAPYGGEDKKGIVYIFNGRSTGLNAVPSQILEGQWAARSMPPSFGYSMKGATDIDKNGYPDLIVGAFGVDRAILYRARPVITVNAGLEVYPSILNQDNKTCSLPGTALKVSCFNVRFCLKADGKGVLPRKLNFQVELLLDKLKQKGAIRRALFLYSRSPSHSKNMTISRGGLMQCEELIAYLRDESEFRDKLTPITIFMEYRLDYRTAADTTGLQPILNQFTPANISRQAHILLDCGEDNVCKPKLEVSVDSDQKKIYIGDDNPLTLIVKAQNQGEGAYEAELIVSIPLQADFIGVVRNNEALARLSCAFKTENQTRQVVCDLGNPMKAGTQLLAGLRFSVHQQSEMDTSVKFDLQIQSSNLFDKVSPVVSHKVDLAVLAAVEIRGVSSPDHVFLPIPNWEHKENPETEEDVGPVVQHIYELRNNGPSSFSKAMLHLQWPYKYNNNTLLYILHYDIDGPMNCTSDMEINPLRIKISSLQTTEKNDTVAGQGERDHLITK
Sequence of recombinant human integrin αvβ6 (P06756 890-992 partner): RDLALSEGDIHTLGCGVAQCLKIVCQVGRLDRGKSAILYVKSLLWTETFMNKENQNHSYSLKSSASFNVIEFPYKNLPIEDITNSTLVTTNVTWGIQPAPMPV
Sequence of recombinant human integrin αvβ6 (P18564 22-707): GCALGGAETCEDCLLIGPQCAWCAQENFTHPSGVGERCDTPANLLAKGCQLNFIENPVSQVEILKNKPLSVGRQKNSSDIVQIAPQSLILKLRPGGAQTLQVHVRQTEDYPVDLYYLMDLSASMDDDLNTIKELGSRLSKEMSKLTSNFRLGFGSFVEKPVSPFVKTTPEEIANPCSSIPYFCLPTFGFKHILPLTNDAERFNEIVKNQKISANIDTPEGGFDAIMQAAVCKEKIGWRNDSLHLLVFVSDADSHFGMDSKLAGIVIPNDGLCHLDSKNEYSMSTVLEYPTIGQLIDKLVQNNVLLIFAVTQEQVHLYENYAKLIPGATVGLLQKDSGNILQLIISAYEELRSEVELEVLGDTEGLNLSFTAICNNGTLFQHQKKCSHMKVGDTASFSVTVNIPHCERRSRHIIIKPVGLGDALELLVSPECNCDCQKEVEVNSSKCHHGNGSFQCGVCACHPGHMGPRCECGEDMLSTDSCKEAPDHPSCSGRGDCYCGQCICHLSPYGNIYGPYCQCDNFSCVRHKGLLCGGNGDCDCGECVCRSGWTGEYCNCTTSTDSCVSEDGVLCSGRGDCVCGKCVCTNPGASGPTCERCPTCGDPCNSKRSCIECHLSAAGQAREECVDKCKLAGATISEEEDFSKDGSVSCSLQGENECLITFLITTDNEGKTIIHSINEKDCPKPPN

For the first assay, the target named is recombinant human integrin αvβ6 (Homo sapiens (Human), UniProt P06756+P18564). The assay can be described thus: Solid phase integrin αvβ6 binding assay. The note with it: IC50 presented in four ranges; read-out: αvβ6 Inhibition IC50 (nM) - range. As to the method:
(§1) Microplates were coated with recombinant human integrin αvβ6 (2 µg/mL) in PBS (100 µL/well 25° C., overnight). The coating solution was removed, washed with wash buffer (0.05% Tween 20; 0.5 mM MnCl2; in 1x TBS). The plate was blocked with 200 µL/well of Block Buffer (1% BSA; 5% sucrose; 0.5 mM MnCl2; in 1x TBS) at 37° C. for 2 h. Dilutions of testing compounds and recombinant TGFβ1 LAP (0.67 µg/mL) in binding buffer (0.05% BSA; 2.5% sucrose; 0.5 mM MnCl2; in 1x TBS) were added. The plate was incubated for 2 hours at 25° C., washed, and incubated for 1 hour with Biotin-Anti-hLAP. Bound antibody was detected by peroxidase-conjugated streptavidin. The IC50 values for testing compounds were calculated by a four-parameter logistic regression.
The compounds tested were compound samples prepared according to procedures described in the Synthetic Examples section, with the stereochemical purity as indicated in the Examples.
as §1, with “A third series of exemplary compounds was selected for testing in the solid phase integrin αvβ6 binding assay. The compounds tested were compound samples prepared according to procedures described in the Synthetic Examples section, with the stereochemical purity as indicated in the Examples. As in Example B1, microplates” for “Microplates”
As a reminder, the IC50 is the concentration that inhibits the measured activity by half. For `O=C(O)[C@H](CCN(CCCCc1ccc2c(n1)NCCC2)C1CC1)Nc1ncnc2[nH]ncc12` [compound 116], the IC50 was in the range of 50 to 250 nM.

For the compound `Cc1ncccc1OCCN(CCCCc1ccc2c(n1)NCCC2)CC[C@H](Nc1ncnc2cccnc12)C(=O)O` [compound 54], the IC50 was under 50 nM.

Regarding `CO[C@H](C)CN(CCCCc1ccc2c(n1)NCCC2)CC[C@H](Nc1ncc(Br)cn1)C(=O)O` [compound 86], the IC50 was 50 to 250 nM.

In the case of `CO[C@H](C)CN(CCCCc1ccc2c(n1)NCCC2)CC[C@H](Nc1cc(-c2ccccc2)ncn1)C(=O)O` [compound 128], the IC50 is over 1000 nM.

Take `COCCN(CCCCc1ccc2c(n1)NCCC2)CC[C@H](Nc1cc(C(F)(F)F)nc(C)n1)C(=O)O` [compound 22]: the IC50 is under 50 nM.

Regarding `COCCN(CCCCc1ccc2c(n1)NCCC2)CC[C@H](Nc1ncnc2cc(F)c(F)cc12)C(=O)O` [compound 21], the half-maximal inhibitory concentration (IC50) was under 50 nM.

Take `COCCN(CCCCc1ccc2c(n1)NCCC2)CC[C@H](Nc1ncnc2cc(F)ccc12)C(=O)O` [compound 7]: the half-inhibitory concentration (IC50) was under 50 nM.

In the case of `CO[C@H](C)CN(CCCCc1ccc2c(n1)NCCC2)CC[C@H](Nc1ccnc(-c2ccccc2)n1)C(=O)O` [compound 73], the IC50 was under 50 nM.

`CO[C@H](C)CN(CCCCc1ccc2c(n1)NCCC2)CC[C@H](Nc1nc(-c2cccnc2)nc2ccccc12)C(=O)O` [compound 100]: the IC50 is under 50 nM.

As to `Cn1ncc2c(N[C@@H](CCN(CCCCc3ccc4c(n3)NCCC4)CCS(C)(=O)=O)C(=O)O)ncnc21` [compound 101], the IC50 lay in the range of 50 to 250 nM.

Turning to `Cc1cc(N[C@@H](CCN(CCCCc2ccc3c(n2)NCCC3)CC(F)F)C(=O)O)nc(-c2ccncc2)n1` [compound 122], the concentration for half-maximal inhibition (IC50) was 250 to 1000 nM.

For the compound `COCCN(CCCCc1ccc2c(n1)NCCC2)CC[C@H](Nc1nc(C)nc2ccccc12)C(=O)O` [compound 10], the IC50 is under 50 nM.

With `CO[C@H](C)CN(CCCCc1ccc2c(n1)NCCC2)CC[C@H](Nc1ncnc2[nH]ncc12)C(=O)O` [compound 71], the half-inhibitory concentration (IC50) is under 50 nM.

On to `CO[C@H](C)CN(CCCCc1ccc2c(n1)NCCC2)CC[C@H](Nc1nc(C)nc2cc(F)ccc12)C(=O)O` [compound 65], for which the IC50 is under 50 nM.

For `COC[C@@H](F)CN(CCCCc1ccc2c(n1)NCCC2)CC[C@H](Nc1ncncc1-c1ccccc1)C(=O)O` [compound 110], the IC50 is under 50 nM.

With `CS(=O)(=O)CCN(CCCCc1ccc2c(n1)NCCC2)CC[C@H](Nc1cc(-n2cccn2)ncn1)C(=O)O` [compound 126], the IC50 was over 1000 nM.

As for `CO[C@H](C)CN(CCCCc1ccc2c(n1)NCCC2)CC[C@H](Nc1ccnc(C(F)(F)F)n1)C(=O)O` [compound 87], the IC50 is 250 to 1000 nM.

Regarding `COC[C@@H](F)CN(CCCCc1ccc2c(n1)NCCC2)CC[C@H](Nc1ncnc2ccccc12)C(=O)O` [compound 31], the 50% inhibitory concentration (IC50) is under 50 nM.

Consider `O=C(O)[C@H](CCN(CCCCc1ccc2c(n1)NCCC2)CCOc1ccccc1)Nc1ncc(Br)cn1` [compound 83], for which the half-maximal inhibitory concentration (IC50) is under 50 nM.

For another assay, the system named is Type I Collagen gene Col1a1 expression. Briefly: Precision cut lung slices of mice under acute bleomycin exposure. The format is cell-based, mouse. The note with it: slices cultured 3 days; integrin inhibitors at IC50, pan-αv and ALK5 inhibitors at 10x IC50. As to the method:
Mice (C57BL/6) were administered 3 U/kg of bleomycin (Teva Pharmaceuticals; North Wales, PA) on day 0 via oropharyngeal aspiration while under anesthesia. On day 14, precision cut lung slices were obtained. Following euthanization, 2% low gelling temp agarose was injected into the mouse lungs via the trachea. […] The lobes were then subjected to precision slicing to obtain samples for culture using a microtome (Compresstome VF-300-0Z, Precisionary; Greenville, NC). Individual slices were distributed in a multiwell culture plate and cultured for 3 days under control (DMSO) and test compound conditions.
For the compound `CC(C)(C)c1cc(Br)cc(C(CC(=O)O)NC(=O)CNC(=O)c2cc(O)cc(NC3=NCC(O)CN3)c2)c1` [second pan-αv small molecule inhibitor, (3S)-N-[3-hydroxy-5-[(1,4,5,6-tetrahydro-5-hydroxy-2-pyrimidinyl)amino]benzoyl]glycyl-3-[3-bromo-5-(1,1-dimethylethyl)phenyl]-(3-alanine], the “Type I Collagen gene Col1a1 expression vs DMSO control” value was “reduced”.
